The results in this text go back to patent US20240285672A1, “BETA-GLUCAN FOR PREVENTING AND/OR TREATING FIBROSIS AND RELATED DISEASES” (GN Corporation Co Ltd, priority 2021, published 2024).

Common to all, as to type: in vivo, C57BL/6J mice
Experiment [1] relates to STAM mouse model of non-alcoholic steatohepatitis. As to the kind of experiment: HE staining, NAFLD Activity Score (F18S study). Particulars: STAM mice liver. The protocol:
For HE staining, sections were cut from paraffin blocks of liver tissue prefixed in Bouin's solution and stained with Lillie-Mayer's Hematoxylin (Muto Pure Chemicals Co., Ltd., Japan) and eosin solution (Wako Pure Chemical Industries). The NAFLD Activity Score (NAS) was calculated according to the criteria of Kleiner (Kleiner D E. Et al., Hepatology, 2005; 41:1313), as shown in Table 2. For NAS scoring, bright field images of HE-stained sections were captured using a digital camera (DFC295; Leica, Germany) at 50- and 200-fold magnifications. Steatosis score in 1 section/mouse (representative 1 field at 50-fold magnification), inflammation score in 1 section/mouse (representative 1 field around the central vein at 200-fold magnification) and ballooning score in 1 section/mouse (representative 1 field around the central vein at 200-fold magnification) were estimated.

A short description of experiment [2]: Plasma ALT in STAM mice (F18S study). The following applies: at 9 weeks of age. The protocol: At study termination, non-fasting blood was collected through direct cardiac puncture using pre-cooled syringes. The collected blood was transferred in pre-cooled polypropylene tubes with anticoagulant (Novo-Heparin) and stored on ice until centrifugation. The blood samples were centrifuged at 1,000×g for 15 minutes at 4° C. The supernatant was collected and stored at −80° C. for biochemistry and evaluation.
Plasma ALT levels were measured by FUJI DRI-CHEM 7000 (Fujifilm Corporation).

For a further experiment, the system named is gut microbiota. As to the kind of experiment: Gut microbiome analysis of fecal samples, 16S rRNA sequencing (STAM mice). The text has this: Frequency: Fecal samples were collected at the 6 weeks of age (before administration) and 9 weeks of age (before sacrifice).
Procedure: At 6 weeks of age, fecal samples were collected from each mouse by clean catch method. Handle animals with clean gloves sterilized with 70% ethanol. A sterile petri dish was placed on the bench. Gently massage the abdomen, position the bottom of mouse over a fresh petri dish, and collect 1-2 fecal pellets. At sacrifice, fecal samples were aseptically collected from cecum. The tubes with feces were placed on ice immediately. These tubes were snap frozen in liquid nitrogen and stored at −80° C. for shipping.
In this analysis, the 16S rRNA sequence data acquired by the next-generation sequencer from the fecal […] was used to perform community analysis using the QIIME2 program for microbial community analysis. The raw read data in FASTQ format output from the next-generation sequencer was trimmed to remove adapter sequences and low QV regions that may be included in the data. Cutadapt was used to remove adapter sequences from DNA sequencing reads. Trimmomatic was used as read trimming tool for Illumina NGS data. The adapter sequence was trimmed using the adapter trimming program “cutadapt” if the Trimming of the region at the end of the read sequence overlapped the corresponding sequence by at least one base (mismatch tolerance: 20%). […]

Experiment [3] relates to STAM mouse model of non-alcoholic steatohepatitis. Description: Sirius red staining of liver sections, fibrosis area (F18S study). Particulars: STAM mice liver, x200. As to the method: To visualize collagen deposition, Bouin's fixed liver sections were stained using picro-Sirius red solution (Waldeck, Germany). Briefly, sections were deparaffinized and hydrophilized with xylene, 100-70% alcohol series and RO water, and then treated with 0.03% picro-Sirius red solution (Cat No.: 1A-280) for 60 minutes. After washing with 0.5% acetic acid solution and RO water, stained sections were dehydrated and cleared with 70-100% alcohol series and xylene, then sealed with Entellan® new (Merck, Germany) and used for observation.
For quantitative analysis of the fibrosis area and inflammation area, bright field images of Sirius red-stained and F4/80-immunostained sections were captured around the central vein using a digital camera (DFC295; Leica, Germany) at 200-fold magnification, and the positive areas in 5 fields/section were measured using ImageJ software (National Institute of Health, USA).

Turning to `CCCc1nc2c(C)cc(-c3nc4ccccc4n3C)cc2n1Cc1ccc(-c2ccccc2C(=O)O)cc1` [Telmisartan], in experiment [1] (HE staining), the NAS average score stood at 2.625 and the “NAS compared with the other groups” value is recorded as “significantly lesser score”. In experiment [1] (compared with the vehicle), the “Ballooning and steatosis score” value is “decreased most”. Moreover, the “Plasma ALT levels (Mean)” value in experiment [2] was 36 U/L. Also, the “decrease in firmicutes and increase in Bacteroides” value in the experiment on gut microbiota (post-intervention, compared to all other groups) is recorded as “highest”. In the experiment with gut microbiota (pre vs post-intervention), the Proteobacteria entry is “increased”. In experiment [3], the “Sirius red average positive stained area” value turned out to be 0.59.
